From ChEMBL document CHEMBL1201862, “PubChem BioAssay data set” (2004)
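Step 1: Grow cells in 96-well plates. Step 2: Expose to compound for 48 hours at 5 concentrations. Step 3: Interpolate endpoints linearly; if unreached, use highest concentration. The concentration for 50% growth inhibition is given as GI50.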 Calls of active or inactive are those of the source. Rule as the data show it: active = GI50 up to about 1.1 µM and inactive = higher.

Tests used:
Assay in all cases: inhibition of tumour cell growth, NCI panel, 48 h
M14 = tested on: M14
SW-620 = tested on: SW-620
OVCAR-4 = tested on: OVCAR-4
SK-MEL-2 = tested on: SK-MEL-2
KM12 = tested on: KM12
MOLT-4 = tested on: MOLT-4
UO-31 = tested on: UO-31
NCI-H522 = tested on: NCI-H522
UACC-257 = tested on: UACC-257
HOP-92 = tested on: HOP-92
SK-MEL-28 = tested on: SK-MEL-28
SNB-19 = tested on: SNB-19
A549 = tested on: A549
SF-268 = tested on: SF-268
NCI-H460 = tested on: NCI-H460
RXF 393 = tested on: RXF 393
OVCAR-8 = tested on: OVCAR-8
HCT-116 = tested on: HCT-116
SF-539 = tested on: SF-539

| Structure (SMILES) | GI50 (M14) | GI50 (SW-620) | GI50 (OVCAR-4) | GI50 (SK-MEL-2) | GI50 (KM12) | GI50 (MOLT-4) | GI50 (UO-31) | GI50 (NCI-H522) | GI50 (UACC-257) | GI50 (HOP-92) | GI50 (SK-MEL-28) | GI50 (SNB-19) | GI50 (A549) | GI50 (SF-268) | GI50 (NCI-H460) | GI50 (RXF 393) | GI50 (OVCAR-8) | GI50 (HCT-116) | GI50 (SF-539) |
| --- | --- | --- | --- | --- | --- | --- | --- | --- | --- | --- | --- | --- | --- | --- | --- | --- | --- | --- | --- |
| O=C(CC1(O)C(=O)Nc2c(Cl)cc(Cl)cc21)c1ccco1 (stereo not given) | 54 µM (inactive) | 50.4 µM (inactive) | 15.7 µM (inactive) | 60.7 µM (inactive) | 32.7 µM (inactive) | 15.4 µM (inactive) | 98.2 µM (inactive) | 62.5 µM (inactive) | > 100 µM (inactive) | 36.6 µM (inactive) | > 100 µM (inactive) | > 100 µM (inactive) | > 100 µM (inactive) | 50 µM (inactive) | 65.6 µM (inactive) | 78 µM (inactive) | 37.4 µM (inactive) |  |  |
| COc1cc(C2c3cc4c(cc3[C@@H](Oc3ccc(F)cc3)C3COC(=O)[C@H]23)OCO4)cc(OC)c1O (stereo not given in full) |  | 0.481 µM (active) | 6.79 µM (inactive) |  | 4.03 µM (inactive) | 0.359 µM (active) | > 67.5 µM (inactive) | 0.217 µM (active) | 0.59 µM (active) | 1.2 µM (inactive) | 3.15 µM (inactive) |  | 0.405 µM (active) | 0.679 µM (active) | 0.343 µM (active) | 0.234 µM (active) | 0.447 µM (active) | 0.347 µM (active) | 0.209 µM (active) |
| COC(=O)N1C=Cc2c(c(C)c3c([nH]c4ccccc43)c2C)C1C (stereo not given) | 29.6 µM (inactive) | 17.7 µM (inactive) | 12.3 µM (inactive) | 18.3 µM (inactive) |  | 5.97 µM (inactive) | 18.5 µM (inactive) |  | 17.3 µM (inactive) | 20.1 µM (inactive) | 15.5 µM (inactive) | 18 µM (inactive) | 18 µM (inactive) | 18.2 µM (inactive) | 22.5 µM (inactive) |  | 18.3 µM (inactive) | 12.9 µM (inactive) | 17.1 µM (inactive) |
| CC(C)=CC(O)C(C(O)CCC1(C)OCCO1)S(=O)(=O)c1ccccc1 (stereo not given) | > 100 µM (inactive) | > 100 µM (inactive) | > 100 µM (inactive) | > 100 µM (inactive) | > 100 µM (inactive) |  | > 100 µM (inactive) | > 100 µM (inactive) | > 100 µM (inactive) |  | > 100 µM (inactive) | > 100 µM (inactive) | > 100 µM (inactive) | > 100 µM (inactive) | > 100 µM (inactive) | > 100 µM (inactive) | > 100 µM (inactive) | > 100 µM (inactive) | > 100 µM (inactive) |
| O=C(CC1=NCCN1)c1ccccc1 |  | > 750 µM (inactive) | > 750 µM (inactive) | > 750 µM (inactive) | > 750 µM (inactive) | > 750 µM (inactive) | 721 µM (inactive) | > 750 µM (inactive) | > 750 µM (inactive) | > 319 µM (inactive) | > 750 µM (inactive) | > 750 µM (inactive) | > 213 µM (inactive) | > 750 µM (inactive) | > 511 µM (inactive) | > 750 µM (inactive) | > 750 µM (inactive) | > 750 µM (inactive) | > 750 µM (inactive) |
| CNC(=O)C(C)C1CCC2(C)C=CC(=O)C(C)=C2C1O (stereo not given) |  | > 57.4 µM (inactive) | > 100 µM (inactive) | > 100 µM (inactive) | > 100 µM (inactive) | > 100 µM (inactive) | > 43.3 µM (inactive) | > 100 µM (inactive) | > 100 µM (inactive) | > 100 µM (inactive) | > 100 µM (inactive) | > 100 µM (inactive) | > 48.8 µM (inactive) | > 100 µM (inactive) | > 100 µM (inactive) | > 100 µM (inactive) | > 49.4 µM (inactive) | > 100 µM (inactive) | > 100 µM (inactive) |
| CN1c2ccccc2N(C(=O)c2ccc([N+](=O)[O-])cc2)C(CC(=O)O)c2cccn21 (stereo not given) | > 100 µM (inactive) | > 100 µM (inactive) | > 100 µM (inactive) | > 100 µM (inactive) | > 100 µM (inactive) | > 100 µM (inactive) | > 100 µM (inactive) | > 100 µM (inactive) | > 100 µM (inactive) | > 100 µM (inactive) | > 100 µM (inactive) | > 100 µM (inactive) | > 100 µM (inactive) | > 100 µM (inactive) | > 100 µM (inactive) | > 100 µM (inactive) | > 100 µM (inactive) |  | > 100 µM (inactive) |
| CCCCCCCCCCCC(=O)C1=C(O)CCC(O)C1=O (stereo not given) |  | 13.2 µM (inactive) | 18.5 µM (inactive) | 11.9 µM (inactive) | 17.9 µM (inactive) | 17.9 µM (inactive) | 19.7 µM (inactive) | 12.1 µM (inactive) | 14.7 µM (inactive) | 17.7 µM (inactive) | 16.1 µM (inactive) | 9.08 µM (inactive) | 29.9 µM (inactive) | 27.2 µM (inactive) | 15.7 µM (inactive) | 35.1 µM (inactive) | 10.1 µM (inactive) | 21.3 µM (inactive) | 19.1 µM (inactive) |
| CN(C)CCNC(=O)c1cccc2c1nc(-c1cccnc1)c1ccccc12 | 6.67 µM (inactive) | 2.17 µM (inactive) | 4.91 µM (inactive) | 10.6 µM (inactive) | 6.78 µM (inactive) | 0.311 µM (active) | 2.69 µM (inactive) |  | 3.89 µM (inactive) | 5.31 µM (inactive) | 11.1 µM (inactive) | 7.05 µM (inactive) | 1.21 µM (inactive) | 6.05 µM (inactive) | 0.303 µM (active) | 4.71 µM (inactive) | 4.81 µM (inactive) | 2.95 µM (inactive) | 2.65 µM (inactive) |
| CN(C)CCNC(=O)c1cccc2cc3cc(O)ccc3nc12 |  | 0.611 µM (active) | 2 µM (inactive) | 2.14 µM (inactive) | 2.12 µM (inactive) | 0.147 µM (active) | 1.12 µM (active) |  | 1.26 µM (inactive) | 0.792 µM (active) | 1.92 µM (inactive) | 0.869 µM (active) | 0.811 µM (active) | 1.48 µM (inactive) | 0.361 µM (active) | 1.11 µM (active) | 0.796 µM (active) | 0.558 µM (active) | 1.11 µM (active) |
| Cn1c2ccccc2c2ccc3c(c21)C(=O)C(c1ccccc1)=CC3=O | 39.4 µM (inactive) |  |  | 22 µM (inactive) | 32.2 µM (inactive) | 14.8 µM (inactive) | 31.1 µM (inactive) | 19.2 µM (inactive) | 32.7 µM (inactive) | 15.7 µM (inactive) | 24 µM (inactive) | 42.5 µM (inactive) | 34.4 µM (inactive) | 36 µM (inactive) | 9.27 µM (inactive) |  | 14.9 µM (inactive) | 14.5 µM (inactive) | 24.2 µM (inactive) |
| CC(=O)c1cc2sc3ccccc3c2[nH]1 | > 100 µM (inactive) | > 100 µM (inactive) | > 100 µM (inactive) | > 100 µM (inactive) | > 100 µM (inactive) | > 100 µM (inactive) | 56.4 µM (inactive) | > 100 µM (inactive) |  | > 100 µM (inactive) | > 100 µM (inactive) | > 100 µM (inactive) | > 100 µM (inactive) | > 100 µM (inactive) | > 100 µM (inactive) | > 100 µM (inactive) | 61.2 µM (inactive) | > 100 µM (inactive) | > 100 µM (inactive) |
| CC1C(/C=C/c2ccoc2)ON2CCCC12 (stereo not given) | > 10 µM (inactive) | > 100 µM (inactive) | > 100 µM (inactive) | > 100 µM (inactive) |  |  | > 100 µM (inactive) | > 100 µM (inactive) | > 100 µM (inactive) | 17.8 µM (inactive) | > 100 µM (inactive) | > 100 µM (inactive) |  | > 100 µM (inactive) | > 100 µM (inactive) | 35.6 µM (inactive) | > 100 µM (inactive) |  | > 100 µM (inactive) |
| Cc1ccc(S(=O)(=O)N/N=C(/c2nc3ccc([N+](=O)[O-])cc3nc2O)C(O)c2ccc(C(O)/C(=N\NS(=O)(=O)c3ccc(C)cc3)c3nc4ccc([N+](=O)[O-])cc4nc3O)cc2)cc1 (stereo not given) | 20.8 µM (inactive) | 42.8 µM (inactive) |  | 77.6 µM (inactive) | 19.3 µM (inactive) | 28.2 µM (inactive) | 38.4 µM (inactive) | 3.15 µM (inactive) | 14.8 µM (inactive) | 2.55 µM (inactive) | > 100 µM (inactive) | > 100 µM (inactive) | 49.1 µM (inactive) |  | 35.6 µM (inactive) | > 100 µM (inactive) | 92.3 µM (inactive) | 54.2 µM (inactive) | 42.9 µM (inactive) |
| NC(CCCCNCc1ccccc1)C(=O)O (stereo not given) | > 100 µM (inactive) | > 100 µM (inactive) | > 100 µM (inactive) | > 100 µM (inactive) | > 100 µM (inactive) | > 100 µM (inactive) | > 100 µM (inactive) | > 100 µM (inactive) | > 100 µM (inactive) | > 100 µM (inactive) | > 100 µM (inactive) | > 100 µM (inactive) | > 100 µM (inactive) | > 100 µM (inactive) | > 100 µM (inactive) |  | > 100 µM (inactive) | > 100 µM (inactive) | > 100 µM (inactive) |
| COc1cc(C2C(C(=O)Nc3ccccc3C)=C(C)NC(C)=C2C(=O)Nc2ccccc2C)ccc1O | > 100 µM (inactive) | > 100 µM (inactive) | > 100 µM (inactive) | > 100 µM (inactive) | > 100 µM (inactive) | 60.7 µM (inactive) | > 100 µM (inactive) | > 100 µM (inactive) | > 100 µM (inactive) | > 100 µM (inactive) | > 100 µM (inactive) | > 100 µM (inactive) | > 100 µM (inactive) |  | > 100 µM (inactive) | > 100 µM (inactive) | > 100 µM (inactive) | > 100 µM (inactive) | > 100 µM (inactive) |
